1 compound from US20070123514A1, “Methods of modulating neurotrophin-mediated activity” (PainCeptor Pharma Corporation, priority 2005, published 2007) can be followed below.

Molecules are shown by their SMILES.

The test system of test [1] is PC12 (TrkA & p75). The test is described as follows: 125I-NGF binding displacement in PC12 cells. Also noted: species or system rat. As to conditions: PC12 cells expressing TrkA and p75; result in words. Here is the method: The method for acquiring the PC12 data described in Table 1 is described herein in Example 1. Each experiment was done at least once with an n value of 4 for each data point. (n/a=not acquired)
All cells were incubated at 37° C. in 5% CO2. PC12 cells were maintained in RPMI-1640 medium supplemented with 10% fetal bovine serum (FBS). A875 human melanoma cells were maintained in DMEM with 10% FBS. HEK 293 cells were stably transfected with human TrkA plasmid (see below) and maintained in DMEM with 10% FBS and G418 (600 μg/mL) for selection.
NGF binding was evaluated using methods familiar to those who are skilled in the art. Briefly, cells expressing one or both NGF receptors (PC12: TrkA+p75; A875: p75 alone; HEK_trkA: TrkA alone) were harvested by replacing the medium with calcium-magnesium free balanced salt (Grey's) solution and incubating at 37° C. for 15 min. For NGF binding, cells were resuspended at a concentration of 2×10^6 cells/mL in HEPES-Krebs-Ringer (HKR) buffer (10 mM HEPES; 125 mM NaCl; 4.8 mM KCl; 1.3 mM CaCl2; 1.2 mM MgSO4; 1.2 mM KH2PO4; 1 mg/ml BSA; 1 mg/ml glucose; pH 7.4) and exposed to ^125I-NGF (˜0.1 nM) in the presence or absence of varying concentrations of the compound. Non-specific binding was determined for reference by incubating ^125I-NGF with an excess of non-radioactive NGF in the abence of compound. Following a two-hour incubation period at 4° C., ^125I-NGF bound to the cells was quantified in a gamma radiation counter following separation from unbound NGF by filtration or centrifugation through glycerol (10% in HKR). Inhibition of binding was calculated as a percent of the specific binding (calculated as the differential between ^125I-NGF binding in the absence and presence of an excess of non-radioactive NGF without compound). Dose-response inhibition curves were typically generated with seven concentrations of a given compound, with three replicates for each concentration. For most compounds, multiple dose-response curves were generated.
The IC50 data shown in Table 1 were acquired using the procedure described herein using PC12 cells.

Test [2] relates to NGF-induced Erk 1/2 phosphorylation in PC12 cells. The test is described as follows: Erk phosphorylation in NGF-stimulated PC12 cells (Western blot, ELISA). Type of test: cell-based, rat. As to conditions: 1 ng/mL NGF, result in words. Here is the method: This assay is useful for establishing that the compounds of the invention are functional NGF antagonists, not receptor agonists (an agonist could conceivably block NGF binding but actually activate the receptor). Erk 1/2 is a kinase activated down stream of TrkA and is a well studied member of the NGF-induced signal transduction cascade.
PC12 cells expressing TrkA and p75 were acutely exposed to 1 ng/mL NGF (15 min; 37° C.; 5% CO2) that was pre-incubated (30 min; room temperature) with or without the compounds. Cells were lysed in Laemmli sample buffer (for SDS-PAGE) or a lysis buffer containing Triton X-100 (for ELISA). Following SDS-PAGE, proteins were electroblotted onto nitrocellulose and immunoprobed for phosphorylated Erk 1 and 2. Blocking and primary antibody incubations of immunoblots were performed in Tris-buffered saline-Tween (10 mM Tris, pH 8.0, 150 mM NaCl, and 0.2% Tween 20) supplemented with 5% (w/v) bovine serum albumin (BSA); secondary antibody incubations were performed in 5% (w/v) dried skim milk powder. Immunoreactive bands were detected by chemiluminescence.
To detect phosphorylated Erk 1/2 by ELISA, a kit from R&D (Minneapolis, Minn.) Systems was used. […] The quantity of phosphoryated Erk 1/2 was quantified colorometrically with a standard HRP-streptavidin reaction.

In test [3] the test system is NGF-induced neurite outgrowth, PC12 cells. Put plainly: NGF-induced neurite outgrowth of PC12 cells. Type of test: cell-based, rat. As to conditions: 25 μM compound, 5 ng/ml NGF, mean±SEM, n=8; no inhibition=100%, maximal inhibition=0%. Here is the method:
This assay was run as a further functional marker of NGF antagonism and takes advantage of the differentiation of PC12 cells (neurite outgrowth) induced by NGF. Cultures of PC12 cells were grown on Terasaki plates pre-coated with poly-D-lysine. Cells were exposed to NGF (1-50 (preferably 5) ng/ml) to induce neurite outgrowth as described elsewhere [L A Greene & A S Tischler, Establishment of a noradrenergic clonal line of rat adrenal pheochromocytoma cells which respond to nerve growth factor, Proc Natl Acad Sci USA. 1976 July; 73(7): 2424-2428]. In addition to NGF, cells were exposed to varying concentration of the compounds or vehicle. Following 4 days of exposure to NGF in the presence or absence of compound, neurite outgrowth was quantified. A neurite was scored if its caliber from origin to terminal was approximately the same and the length was equal to or greater than 1.5 the cell body diameter. The number of neurite bearing cells per total number of viable cells was calculated for each condition; the number of cells with neurites in the presence of NGF (without compound exposure) was considered to represent maximal (100%) outgrowth, to which the inhibitory effect of compounds of the invention on NGF-induced outgrowth was compared.

Test [4] deals with Mice. Put plainly: Writhing test (acetic acid abdominal contraction test). Type of test: in vivo, mouse. Here is the method: The acetic acid abdominal contraction test (Martinez et al., Pain 1999; 81: 179) was used to determine the efficacy of different compounds in a model of acute visceral chemical nociception. […] Compound or vehicle was administered (i.p. or s.c.) 15-45 minutes prior to the acetic acid injection. Each episode of writhing is characterized by a lengthwise stretching of the torso with a concomitant arching of the back.
Statistical analysis was performed using Prism™ 4.01 software package (GraphPad, San Diego, Calif., USA). The difference in response levels between treatment groups and control vehicle group was analyzed using an ANOVA followed by Bonferroni's method for post-hoc pair-wise comparisons. A p value <0.05 was considered to be significant
Animals were treated with vehicle (VEH) or Compound 5 (100 mg/kg i.p.; CMP) 10-20 minutes before the intraperitoneal injection of acetic acid, as described above.

As for `O=C(O)c1ccc(Cl)c(N2C(=O)c3cccc4cc([N+](=O)[O-])cc(c34)C2=O)c1` [Compound 5, 4-Chloro-3-(5-nitro-1,3-dioxo-1H,3H-benzo[de]isoquinolin-2-yl)-benzoic acid], in test [1], the “blocking of NGF binding (dose-response curve)” value is recorded as “effectively block NGF binding”. In addition, in test [2], the “NGF-induced Erk 1/2 phosphorylation, ELISA” value was “inhibits NGF-induced Erk 1/2 phosphorylation” and the “NGF-induced Erk 1/2 phosphorylation, Western blot” value was “inhibits NGF-induced Erk 1/2 phosphorylation”. For the same compound, the “NGF-induced neurite outgrowth, % of NGF-only control” value in test [3] is given as 65%±17%. The “chemically-induced abdominal contractions (number in 30 minutes)” value in test [4] (100 mg/kg i.p. 10-20 min before acetic acid, vehicle 58±3, n=6) came to 14±6. In test [4] (100 mg/kg i.p., result in words, p<0.001 vs vehicle, 100 mg/kg), the “antinociceptive effect in the Writhing Test” value is reported as “significant antinociceptive effects”.
